Measurements as given in EPA's ToxRefDB 2.

Tests used:
[1] = system: rat; conditions: Carcinogenicity, sprague dawley, Oral, Feed, dose end: 104 week, group: systemic
[2] = system: dog; conditions: Chronic toxicity, beagle, Oral, Feed, dose end: 52 week, group: systemic
[3] = system: mouse; conditions: Carcinogenicity; cd1; Oral; [Not Specified]; dose end: 24 month; group: systemic; systemic / in life observation / body weight / body weight gain
[4] = system: rat; conditions: Subchronic oral toxicity in rodents, sprague dawley, Feed, dose end: 95 day, group: systemic
[5] = system: dog; conditions: Subchronic oral toxicity in nonrodent, beagle, Feed, dose end: 13 week, group: systemic, systemic / clinical chemistry / alkaline phosphatase (alp/alk) / alkaline phosphatase (alp/alk) + systemic / organ weight / prostate / …
[6] = system: rat; conditions: Chronic toxicity; sprague dawley; Oral; Feed; dose end: 104 week; group: systemic; systemic / in life observation / body weight / body weight + systemic / in life observation / body weight / body weight gain + systemic / …
[7] = system: mouse; conditions: Subchronic oral toxicity in rodents, b6c3f1, Feed, dose end: 13 week, group: systemic
[8] = system: mouse; conditions: Carcinogenicity, b6c3f1, Oral, [Not Specified], dose end: 104 week, group: systemic
[9] = system: rat; conditions: Subchronic oral toxicity in rodents, fischer, Feed, dose end: 13 week, group: systemic
[10] = system: dog; conditions: Chronic toxicity, beagle, Oral, Capsule, dose end: 52 week, group: systemic
[11] = system: rat; conditions: Multigenerational reproductive toxicity study, other, Oral, Feed, dose end: 2 generation
[12] = system: rat; conditions: Combined chronic toxicity/carcinogenicity; fischer; Oral; Feed; dose end: 104 week; group: systemic; systemic / in life observation / clinical signs / body cold to touch + systemic / in life observation / clinical signs / emaciation + …
[13] = system: dog; conditions: Subchronic oral toxicity in nonrodent, beagle, Capsule, dose end: 13 week, group: systemic, systemic / in life observation / clinical signs / salivation + systemic / pathology microscopic / liver / proliferation
[14] = system: rabbit; conditions: Prenatal developmental toxicity study, new zealand white, Oral, Gavage/Intubation, dose end: 18 GD
[15] = system: rat; conditions: Subchronic dermal toxicity, sprague dawley, Topical, dose end: 91 day, group: systemic
[16] = system: rat; conditions: Prenatal developmental toxicity study, sprague dawley, Oral, Gavage/Intubation, dose end: 15 GD
[17] = system: rat; conditions: Sub-acute dermal toxicity, sprague dawley, Topical, dose end: 21 day, group: systemic
[18] = system: rabbit; conditions: Prenatal developmental toxicity study, new zealand white, Oral, Gavage/Intubation, dose end: 18 GD; remark: listed apart in the source
[19] = system: rat; conditions: Prenatal developmental toxicity study, sprague dawley, Oral, Gavage/Intubation, dose end: 15 GD; remark: listed apart in the source
[20] = systemic / in life observation / body weight / body weight + systemic / in life observation / body weight / body weight gain
[21] = systemic / in life observation / body weight / body weight + systemic / in life observation / body weight / body weight gain + systemic / in…
[22] = systemic / organ weight / prostate / absolute + systemic / organ weight / prostate / relative to body weight + systemic / clinical chemistry…
[23] = systemic / pathology microscopic / liver / vacuolization
[24] = systemic / pathology microscopic / liver / vacuolization + systemic / hematology / erythrocyte (rbc) count differential / erythrocyte (rbc…
[25] = systemic / pathology microscopic / liver / [other]
[26] = systemic / pathology microscopic / liver / [other] + systemic / in life observation / body weight / body weight + systemic / in life …
[27] = systemic / pathology microscopic / liver / hematopoietic cell proliferation granulocytic + systemic / pathology gross / liver / accentuated …
[28] = systemic / clinical chemistry / alkaline phosphatase (alp/alk) / alkaline phosphatase (alp/alk) + systemic / clinical chemistry / gamma …
[29] = systemic / clinical chemistry / cholesterol / cholesterol
[30] = systemic / pathology microscopic / liver / [other] + systemic / pathology microscopic / liver / hyperplasia
[31] = systemic / pathology microscopic / liver / [other] + systemic / pathology microscopic / liver / hyperplasia + systemic / in life observation…
[32] = group: offspring, systemic / in life observation / body weight / offspring (pup) weight + systemic / in life observation / body weight / offspring (pup) …
[33] = group: parental, systemic / pathology microscopic / liver / hyperplasia
[34] = group: parental, systemic / pathology microscopic / liver / hyperplasia + systemic / pathology microscopic / liver / inflammation
[35] = group: developmental, developmental / developmental malformation / bone / misaligned + systemic / in life observation / body weight / fetal weight + developmental…
[36] = group: maternal, reproductive / reproductive performance / aborted / aborted + reproductive / reproductive performance / postimplantation loss / …
[37] = systemic / pathology microscopic / skin / acanthosis + systemic / hematology / blood clotting / blood clotting - prothrombin time + systemic…
[38] = group: developmental, systemic / in life observation / body weight / fetal weight
[39] = group: maternal, systemic / in life observation / body weight / body weight + systemic / in life observation / body weight / body weight gain + systemic / in…
[40] = systemic / in life observation / body weight / body weight gain + systemic / in life observation / clinical signs / desquamation + systemic…
[41] = systemic / pathology gross / skin / scabbing
[42] = group: maternal, reproductive / reproductive performance / resorptions / resorptions
[43] = group: maternal, systemic / in life observation / body weight / body weight gain

COc1ccc(C(=CC(=O)N2CCOCC2)c2ccc(Cl)cc2)cc1OC [Dimethomorph]
LEL [1, 20]: 46.3 mg/kg/day
LOAEL [1, 20]: 46.3 mg/kg/day
NEL [1, 21]: 11.3 mg/kg/day
NOAEL [1, 21]: 11.3 mg/kg/day
LOAEL ([2]; systemic / organ weight / prostate / absolute + systemic / organ weight / prostate / relative to body weight): 44.6 mg/kg/day
LEL [2, 22]: 44.6 mg/kg/day
NEL [2, 22]: 14.7 mg/kg/day
NOAEL [2, 22]: 14.7 mg/kg/day
LEL [3]: 977 mg/kg/day
LOAEL [3]: 977 mg/kg/day
NEL [3]: 96.8 mg/kg/day
NOAEL [3]: 96.8 mg/kg/day
LEL [4, 23]: 2.9 mg/kg/day
NEL [4, 23]: < 2.9 mg/kg/day
LOAEL [4, 24]: > 73 mg/kg/day
NOAEL [4, 24]: ≥ 73 mg/kg/day
LEL [5]: 43 mg/kg/day
LOAEL [5]: 43 mg/kg/day
NEL [5]: 15 mg/kg/day
NOAEL [5]: 15 mg/kg/day
LEL [6]: 57.7 mg/kg/day
LOAEL [6]: 57.7 mg/kg/day
NEL [6]: 11.9 mg/kg/day
NOAEL [6]: 11.9 mg/kg/day

COc1cc(OC)nc(Oc2cccc(Oc3nc(OC)cc(OC)n3)c2C(=O)[O-])n1.[Na+] [Bispyribac-sodium]
LEL [7, 25]: 699 mg/kg/day
LOAEL [7, 25]: 699 mg/kg/day
NEL [7, 26]: 68.6 mg/kg/day
NOAEL [7, 26]: 68.6 mg/kg/day
LOAEL ([8]; systemic / pathology microscopic / liver / hematopoietic cell proliferation granulocytic + systemic / in life observation / body weight / …): 353 mg/kg/day
LEL [8, 27]: 1.4 mg/kg/day
NEL [8, 27]: < 1.4 mg/kg/day
NOAEL ([8]; systemic / pathology microscopic / liver / hematopoietic cell proliferation granulocytic + systemic / pathology microscopic / liver / giant …): 14.1 mg/kg/day
LOAEL [9, 28]: 724 mg/kg/day
NOAEL [9, 28]: 71.9 mg/kg/day
LEL [9, 29]: 8.1 mg/kg/day
NEL [9, 29]: < 8.1 mg/kg/day
LEL [10, 30]: 100 mg/kg/day
LOAEL [10, 30]: 100 mg/kg/day
NEL [10, 31]: 10 mg/kg/day
NOAEL [10, 31]: 10 mg/kg/day
LEL [11, 32]: 759 mg/kg/day
LOAEL [11, 32]: 759 mg/kg/day
NEL [11, 32]: 75.7 mg/kg/day
NOAEL [11, 32]: 75.7 mg/kg/day
LEL [11, 33]: 75.7 mg/kg/day
LOAEL [11, 33]: 75.7 mg/kg/day
NEL [11, 34]: 1.5 mg/kg/day
NOAEL [11, 34]: 1.5 mg/kg/day
LEL [12]: 194 mg/kg/day
LOAEL [12]: 194 mg/kg/day
NEL [12]: 10.9 mg/kg/day
NOAEL [12]: 10.9 mg/kg/day
LEL [13]: 600 mg/kg/day
LOAEL [13]: 600 mg/kg/day
NEL [13]: 100 mg/kg/day
NOAEL [13]: 100 mg/kg/day

CN(C)C(=S)[S-].[K+] [Potassium dimethyldithiocarbamate]
LOAEL ([14]; group: developmental, developmental / developmental malformation / bone / misaligned + systemic / in life observation / body weight / fetal weight): 38 mg/kg/day
LEL [14, 35]: 38 mg/kg/day
NEL [14, 35]: 12.8 mg/kg/day
NOAEL [14, 35]: 12.8 mg/kg/day
LEL [14, 36]: 38 mg/kg/day
LOAEL [14, 36]: 38 mg/kg/day
NEL [14, 36]: 12.8 mg/kg/day
NOAEL [14, 36]: 12.8 mg/kg/day
LOAEL ([15]; systemic / pathology gross / skin / scabbing + systemic / pathology microscopic / skin / acanthosis): 350 mg/kg/day
NOAEL ([15]; systemic / pathology gross / skin / scabbing + systemic / pathology microscopic / skin / acanthosis + systemic / hematology / blood clotting…): 75 mg/kg/day
LEL [15, 37]: 75 mg/kg/day
NEL [15, 37]: < 75 mg/kg/day
LEL [16, 38]: 400 mg/kg/day
LOAEL [16, 38]: > 400 mg/kg/day
NEL [16, 38]: 150 mg/kg/day
NOAEL [16, 38]: ≥ 400 mg/kg/day
LEL [16, 39]: 150 mg/kg/day
LOAEL [16, 39]: 150 mg/kg/day
NEL [16, 39]: 25 mg/kg/day
NOAEL [16, 39]: 25 mg/kg/day
LOAEL [17, 40]: 750 mg/kg/day
NOAEL [17, 40]: 500 mg/kg/day
LEL [17, 41]: 100 mg/kg/day
NEL [17, 41]: < 100 mg/kg/day
LEL [18, 38]: 50 mg/kg/day
LOAEL [18, 38]: 150 mg/kg/day
NEL [18, 38]: 25 mg/kg/day
NOAEL [18, 38]: 50 mg/kg/day
LEL [18, 42]: 25 mg/kg/day
NEL [18, 42]: < 25 mg/kg/day
NOAEL ([18]; group: maternal, reproductive / reproductive performance / resorptions / resorptions + systemic / in life observation / body weight / body weight gain + …): 50 mg/kg/day
LOAEL [18, 43]: 150 mg/kg/day
LEL [19, 38]: 600 mg/kg/day
LOAEL [19, 38]: 600 mg/kg/day
NEL [19, 38]: 400 mg/kg/day
NOAEL [19, 38]: 400 mg/kg/day
LEL [19, 43]: 100 mg/kg/day
NEL [19, 43]: < 100 mg/kg/day
LOAEL ([19]; group: maternal, systemic / in life observation / body weight / body weight gain + systemic / in life observation / clinical signs / salivation): 400 mg/kg/day
NOAEL ([19]; group: maternal, systemic / in life observation / body weight / body weight gain + systemic / in life observation / clinical signs / salivation + …): 200 mg/kg/day
